In ChEMBL document CHEMBL3045028, “Synthesis, AntiBacteriol, and Antifungal Activities of Some New Benzimidazoles” (1992):
Active and inactive are the calls of the source. No cut-off for these calls is given here.

Legend:
Assay type in all cases: functional
Botrytis cinerea = experiment: In vitro antifungal activity against Botryotinia fuckeliana assessed as inhibition at 0.1 %
[1] = system: Xanthomonas euvesicatoria; experiment: In vitro antibacterial activity against Xanthomonas euvesicatoria P-2092 assessed as inhibition at 0.1 %
Agrobacterium sp. = experiment: In vitro antibacterial activity against Agrobacterium radiobacter pv. tumefaciens assessed as inhibition at 0.1 %
[2] = system: Xanthomonas campestris pv. campestris; experiment: In vitro antibacterial activity against Xanthomonas campestris pv. campestris KF2 assessed as inhibition at 0.1 %
[3] = system: Agrobacterium tumefaciens; experiment: In vivo antibacterial activity against Agrobacterium tumefaciens infected carrots assessed as effective at 0.01%
[4] = system: Pseudomonas savastanoi pv. glycinea; experiment: In vitro antibacterial activity against Pseudomonas syringae pv. glycinea S1 assessed as inhibition at 0.1 %
[5] = system: Xanthomonas phaseoli pv. phaseoli; experiment: In vitro antibacterial activity against Xanthomonas campestris pv. phaseoli assessed as inhibition at 0.1 %
Pseudomonas viridiflava = experiment: In vitro antibacterial activity against Pseudomonas viridiflava 8 assessed as inhibition at 0.1 %
[6] = system: Pseudomonas savastanoi pv. phaseolicola; experiment: In vitro antibacterial activity against Pseudomonas syringae pv. phaseolicola E81 assessed as inhibition at 0.1 %

Row | Compound | diameter of the inhibition zone (DIZ) (Botrytis cinerea) | diameter of the inhibition zone (DIZ) [1] | diameter of the inhibition zone (DIZ) (Agrobacterium sp.) | diameter of the inhibition zone (DIZ) [2] | further results
1 | CCn1c(N)nc2ccccc21 | 3 cm | 1 cm | 3 cm | 3 cm | –
2 | Cc1ccccc1Cn1c(/N=C/c2ccc([N+](=O)[O-])o2)nc2ccccc21 | – | 3 cm | 3 cm | 3 cm | –
3 | Cc1cccc(Cn2cnc3cc(C)c(C)cc32)c1 | – | 3 cm | 3 cm | 2 cm | –
4 | CCn1cnc2cc(C)c(C)cc21 | – | 3 cm | 3 cm | 3 cm | –
5 | Cc1cccc(OCn2c(/N=C/c3ccc([N+](=O)[O-])o3)nc3ccccc32)c1 | – | 3 cm | 3 cm | 3 cm | –
6 | CCCCCCn1c(/N=C/c2ccc([N+](=O)[O-])o2)nc2ccccc21 | – | 2 cm | 3 cm | 2 cm | Efficacy [3]: 70%
7 | Cc1ccc(Cn2c(/N=C/c3ccc([N+](=O)[O-])o3)nc3ccccc32)cc1 | 1 cm | – | – | – | Efficacy [3]: 70%; diameter of the inhibition zone (DIZ) [4]: 1 cm; inhibition [1]: inactive; inhibition [5]: inactive; inhibition [2]: inactive; inhibition (Pseudomonas viridiflava): inactive; inhibition [6]: inactive
8 | Nc1nc2ccccc2n1/N=C/c1ccc([N+](=O)[O-])o1 | – | 1 cm | – | 2 cm | diameter of the inhibition zone (DIZ) [4]: 2 cm; diameter of the inhibition zone (DIZ) [5]: 3 cm; diameter of the inhibition zone (DIZ) (Pseudomonas viridiflava): 2 cm; diameter of the inhibition zone (DIZ) [6]: 2 cm
9 | Cc1cc2ncn(Cc3ccc(Cl)cc3)c2cc1C | – | 1 cm | – | 1 cm | Efficacy [3]: 30%; inhibition (Botrytis cinerea): inactive; inhibition [4]: inactive; inhibition [5]: inactive; inhibition (Pseudomonas viridiflava): inactive; inhibition [6]: inactive
10 | Cc1ccccc1Cn1c(N)nc2ccccc21 | – | 3 cm | 3 cm | 3 cm | –
11 | Cc1cc2nc(/N=C/c3ccc([N+](=O)[O-])o3)n(Cc3ccccc3Cl)c2cc1C | – | 3 cm | 3 cm | – | diameter of the inhibition zone (DIZ) [5]: 3 cm
12 | CCCCn1c(/N=C/c2ccc([N+](=O)[O-])o2)nc2cc(C)c(C)cc21 | 3 cm | – | – | – | –
13 | Cc1ccc(Cn2cnc3cc(C)c(C)cc32)cc1 | 1 cm | – | – | 2 cm | diameter of the inhibition zone (DIZ) [4]: 1 cm; inhibition [1]: inactive; inhibition [5]: inactive; diameter of the inhibition zone (DIZ) (Pseudomonas viridiflava): 1 cm; diameter of the inhibition zone (DIZ) [6]: 1 cm
14 | Cc1cc2c(cc1C)[n+](N)cn2Cc1ccc(Cl)cc1.O=S(=O)([O-])c1ccccc1 | – | 2 cm | – | 2 cm | inhibition [4]: inactive; diameter of the inhibition zone (DIZ) [5]: 2 cm; diameter of the inhibition zone (DIZ) (Pseudomonas viridiflava): 2 cm; inhibition [6]: inactive
15 | Cc1ccc(Cn2c(N)nc3cc(C)c(C)cc32)cc1 | – | 2 cm | 3 cm | 2 cm | –
16 | Cc1cc2nc(/N=C/c3ccc([N+](=O)[O-])o3)n(Cc3ccc(Cl)cc3)c2cc1C | 3 cm | 1 cm | – | 1 cm | Efficacy [3]: 70%; diameter of the inhibition zone (DIZ) [4]: 2 cm; diameter of the inhibition zone (DIZ) [5]: 3 cm; diameter of the inhibition zone (DIZ) (Pseudomonas viridiflava): 1 cm; diameter of the inhibition zone (DIZ) [6]: 2 cm
17 | Cc1cccc(Cn2c(/N=C/c3ccc([N+](=O)[O-])o3)nc3ccccc32)c1 | – | 2 cm | 3 cm | 3 cm | –
18 | O=[N+]([O-])c1ccc(/C=N/c2nc3ccccc3n2Cc2cccc(F)c2)o1 | – | 3 cm | 3 cm | 3 cm | –
19 | CCCCn1cnc2cc(C)c(C)cc21 | 3 cm | 2 cm | 3 cm | 2 cm | –
20 | Cc1cc2nc(/N=C/c3ccc([N+](=O)[O-])o3)[nH]c2cc1C | – | 3 cm | 3 cm | 3 cm | –
21 | Cc1cc2nc(/N=C/c3ccc([N+](=O)[O-])o3)n(Cc3cccc(F)c3)c2cc1C | – | 3 cm | 3 cm | – | diameter of the inhibition zone (DIZ) [5]: 3 cm
22 | CCCCCCn1c(N)nc2ccccc21 | 3 cm | – | – | – | Efficacy [3]: 30%

Row | Compound | diameter of the inhibition zone (DIZ) (Botrytis cinerea) | diameter of the inhibition zone (DIZ) [1] | diameter of the inhibition zone (DIZ) (Agrobacterium sp.) | diameter of the inhibition zone (DIZ) [2] | further results
23 | Nc1nc2ccccc2n1Cc1ccccc1Cl | – | 2 cm | – | 3 cm | inhibition (Botrytis cinerea): inactive; inhibition [4]: inactive; diameter of the inhibition zone (DIZ) [5]: 1 cm; diameter of the inhibition zone (DIZ) (Pseudomonas viridiflava): 2 cm; inhibition [6]: inactive
24 | Cc1cc2ncn(C(C)(C)C)c2cc1C | – | 3 cm | 3 cm | 3 cm | –
25 | CCn1c(N)nc2cc(C)c(C)cc21 | 3 cm | 3 cm | 2 cm | 3 cm | –
26 | Cc1cc2nc(N)n(Cc3cccc(F)c3)c2cc1C | – | 3 cm | 3 cm | 3 cm | –
27 | Cc1ccc(Cn2c(N)nc3ccccc32)cc1 | – | 3 cm | 3 cm | 3 cm | –
28 | Cc1cc2nc(N)n(/N=C/c3ccc([N+](=O)[O-])o3)c2cc1C | – | 3 cm | 3 cm | 3 cm | –
29 | Nc1nc2ccccc2n1Cc1cccc(F)c1 | – | 3 cm | 3 cm | 3 cm | –
30 | CCCCn1c(/N=C/c2ccc([N+](=O)[O-])o2)nc2ccccc21 | 3 cm | 1 cm | 3 cm | 3 cm | Efficacy [3]: 70%
31 | Cc1cc2nc(N)n(Cc3cccc(Cl)c3)c2cc1C | 3 cm | 3 cm | 2 cm | 3 cm | diameter of the inhibition zone (DIZ) [4]: 2 cm; diameter of the inhibition zone (DIZ) [5]: 3 cm; diameter of the inhibition zone (DIZ) (Pseudomonas viridiflava): 2 cm; diameter of the inhibition zone (DIZ) [6]: 2 cm
32 | CCn1c(/N=C/c2ccc([N+](=O)[O-])o2)nc2ccccc21 | 3 cm | 1 cm | 3 cm | 3 cm | Efficacy [3]: 70%
33 | Cc1cc2nc(N)n(Cc3ccc(Cl)cc3)c2cc1C | – | 1 cm | – | 2 cm | diameter of the inhibition zone (DIZ) [4]: 2 cm; diameter of the inhibition zone (DIZ) [5]: 1 cm; diameter of the inhibition zone (DIZ) (Pseudomonas viridiflava): 1 cm; diameter of the inhibition zone (DIZ) [6]: 2 cm
34 | Cc1cc2nc(N)n(Cc3ccccc3Cl)c2cc1C | – | 3 cm | 3 cm | 2 cm | –
35 | O=[N+]([O-])c1ccc(/C=N/c2nc3ccccc3n2Cc2ccc(Cl)cc2)o1 | – | – | 3 cm | – | inhibition (Botrytis cinerea): inactive
36 | Cc1cc2ncn(Cc3ccccc3C)c2cc1C | – | 3 cm | 3 cm | 2 cm | –
37 | O=[N+]([O-])c1ccc(/C=N/c2nc3ccccc3[nH]2)o1 | 3 cm | 1 cm | 3 cm | 2 cm | diameter of the inhibition zone (DIZ) [4]: 2 cm; diameter of the inhibition zone (DIZ) [5]: 3 cm; diameter of the inhibition zone (DIZ) (Pseudomonas viridiflava): 2 cm; diameter of the inhibition zone (DIZ) [6]: 2 cm
38 | Cc1cc2ncn(Cc3cccc(Cl)c3)c2cc1C | 1 cm | 2 cm | – | 1 cm | diameter of the inhibition zone (DIZ) [4]: 2 cm; inhibition [5]: inactive; diameter of the inhibition zone (DIZ) (Pseudomonas viridiflava): 2 cm; inhibition [6]: inactive
39 | CC(C)(C)n1c(N)nc2ccccc21 | 3 cm | – | – | – | –
40 | Cc1ccc(Cn2c(/N=C/c3ccc([N+](=O)[O-])o3)nc3cc(C)c(C)cc32)cc1 | – | 3 cm | 3 cm | – | diameter of the inhibition zone (DIZ) [5]: 3 cm
41 | COc1cccc(Cn2cnc3cc(C)c(C)cc32)c1 | – | 3 cm | 3 cm | 2 cm | –
42 | Cc1cc2nc(/N=C/c3ccc([N+](=O)[O-])o3)n(Cc3cccc(Cl)c3)c2cc1C | – | – | 3 cm | – | inhibition (Botrytis cinerea): inactive
43 | Nc1nc2ccccc2n1Cc1ccc(Cl)cc1 | 1 cm | – | – | 1 cm | diameter of the inhibition zone (DIZ) [4]: 1 cm; inhibition [1]: inactive; inhibition [5]: inactive; diameter of the inhibition zone (DIZ) (Pseudomonas viridiflava): 1 cm; diameter of the inhibition zone (DIZ) [6]: 1 cm
